Laboratory results from patent US20170334927A1 (Shanghai Sun-sail Pharmaceutical Science & Technology Co., …, priority 2014, published 2017).
≈ marks a conversion by molar mass, not a printed value.

Test system: Mycobacterium tuberculosis H37Rv
Test: Activity test for Mycobacterium tuberculosis (MIC, H37Rv)
Type: cell-based
Details: for MIC: Mycobacterium tuberculosis H37Rv, liquid medium, 37° C., read-out: Minimum inhibitory concentration against H37Rv; for anti Mycobacterium tuberculosis activity (MIC against H37Rv), times of that of PA-824: relative to PA-824; for anti Mycobacterium tuberculosis activity (MIC against H37Rv), times of that of ethambutol: relative to ethambutol
Experimental: The tested strain H37Rv was transferred to liquid medium and cultured for 2 weeks at 37° C.; a small amount of the cultured bacterial solution was pipetted and placed in 4 mL of liquid medium; 10-20 sterile glass beads with a diameter of 2-3 mm were added; the mixture was shaken for 20-30 s and left to sediment for 10-20 min; the supernatant of the bacterial suspension was pipetted and adjusted to a turbidity of 1 MCF (equivalent to 1×10^7 CFU/mL) with the liquid medium for use. Each drug was dissolved to 1 mg/mL with an appropriate amount of DMSO and filtered with a 0.22 μm filter. Then, the solution was diluted to a desired experimental concentration with the liquid medium. The final concentrations of the tested drugs were set as follows: 0.001 μg/mL, 0.002 μg/mL, 0.0039 μg/mL, 0.0078 μg/mL, […], 0.03125 μg/mL, 0.0625 μg/mL, 0.125 μg/mL, 0.25 μg/mL, 0.5 μg/mL and 1 μg/mL, a total of 11 concentration gradients. 100 μL of each of the above-mentioned drug solutions was added to a 96-well microwell plate, then 100 μL bacterial solution with a concentration of 1 mg/mL was added to allow the drug concentration to reach the final set concentration, and cultured at 37° C. Three groups in parallel were set for each drug dilution with inoculation amounts of 100%, 10% and 1%, respectively, while no drug was added to the control group.

Structure (SMILES) | MIC | anti Mycobacterium tuberculosis activity (MIC against H37Rv), times of that of PA-824 | anti Mycobacterium tuberculosis activity (MIC against H37Rv), times of that of ethambutol
O=[N+]([O-])c1cn2c(n1)OC[C@@H](NCc1cnc(N3CCN(c4ccc(OC(F)(F)F)cc4)CC3)nc1C(F)(F)F)C2 [Compound 41, (S)-2-nitro-N-((2-(4-(4-(trifluoromethoxy)phenyl)piperazin-1-yl)-4-(trifluoromethyl)pyrimidin-5-yl)methyl)-6,7-dihydro-5H-imidazo[2,1-b][1,3]oxazin-6-amine] | 0.0312 µg/mL (≈ 0.0531 µM) |  | 
O=[N+]([O-])c1cn2c(n1)OC[C@@H](NCc1ccc(N3C4CCC3CC(Oc3ccc(OC(F)(F)F)cc3)C4)nc1)C2 (stereo partly drawn) [Compound 14, (6S)-2-nitro-N-((6-(3-(4-(trifluoromethoxy)phenoxy)-8-azabicyclo[3.2.1]octan-8-yl)pyrid-3-yl)methyl)-6,7-dihydro-5H-imidazo[2,1-b][1,3]oxazin-6-amine] | 0.0078 µg/mL (≈ 0.0139 µM) | 8 times | 64 times
CC1CN(c2ccc(CN[C@@H]3COc4nc([N+](=O)[O-])cn4C3)cn2)CCN1c1ccc(OC(F)(F)F)cc1 (stereo partly drawn) [Compound 5, (3S)—N-((6-(3-methyl-4-(4-(trifluoromethoxy)phenyl)piperazin-1-yl)pyrid-3-yl)methyl)-7-nitro-3,4-dihydro-2H-imidazo[2,1-b][1,3]oxazin-3-amine] | 0.0039 µg/mL (≈ 0.00731 µM) | 16 times | 128 times
O=[N+]([O-])c1cn2c(n1)OC[C@@H](NCc1ccc(N3CCC4(CC3)CN(c3ccc(OC(F)(F)F)cc3)C4)nc1)C2 [Compound 13, (S)-2-nitro-N-((6-(2-(4-(trifluoromethoxy)phenyl)-2,7-diazaspiro[3.5]nonan-7-yl)pyrid-3-yl)methyl)-6,7-dihydro-5H-imidazo[2,1-b][1,3]oxazin-6-amine] | 0.0156 µg/mL (≈ 0.0279 µM) |  | 
O=[N+]([O-])c1cn2c(n1)OC[C@@H](NCc1cnc(N3C4CCC3CC(Oc3ccc(OC(F)(F)F)cc3)C4)nc1)C2 (some centres unmarked) [Compound 28] | 0.0156 µg/mL (≈ 0.0278 µM) |  | 
CC1CN(c2ccc(OC(F)(F)F)cc2)CCN1c1ccc(CN[C@@H]2COc3nc([N+](=O)[O-])cn3C2)cn1 (stereo partly drawn) [Compound 6, (3S)—N-((6-(2-methyl-4-(4-(trifluoromethoxy)phenyl)piperazin-1-yl)pyrid-3-yl)methyl)-7-nitro-3,4-dihydro-2H-imidazo[2,1-b][1,3]oxazin-3-amine] | 0.00195 µg/mL (≈ 0.00366 µM) | 32 times | 256 times
CN(Cc1cnc(N2CCN(c3ccc(OC(F)(F)F)cc3)CC2)nc1)[C@@H]1COc2nc([N+](=O)[O-])cn2C1 [Compound 44, (S)—N-methyl-2-nitro-N-((2-(4-(4-(trifluoromethoxy)phenyl)piperazin-1-yl)pyrimidin-5-yl)methyl)-6,7-dihydro-5H-imidazo[2,1-b][1,3]oxazin-6-amine] | 0.00195 µg/mL (≈ 0.00365 µM) | 32 times | 256 times
N#Cc1nc(N2CCN(c3ccc(OC(F)(F)F)cc3)CC2)ncc1CN[C@@H]1COc2nc([N+](=O)[O-])cn2C1 [Compound 40, (S)-5-(((2-nitro-6,7-dihydro-5H-imidazo[2,1-b][1,3]oxazin-6-yl)amino)methyl)-2-(4-(4-(trifluoromethoxy)phenyl)piperazin-1-yl)pyrimidine-4-carbonitrile] | 0.0078 µg/mL (≈ 0.0143 µM) | 8 times | 64 times
O=[N+]([O-])c1cn2c(n1)OC[C@@H](NCc1cnc(N3CC4CN(c5ccc(OC(F)(F)F)cc5)CC4C3)nc1)C2 (some centres unmarked) [Compound 25] | 0.0156 µg/mL (≈ 0.0285 µM) |  | 
COc1nc(N2CCN(c3ccc(OC(F)(F)F)cc3)CC2)ncc1CN[C@@H]1COc2nc([N+](=O)[O-])cn2C1 [Compound 38, (S)—N-((4-methoxy-2-(4-(4-(trifluoromethoxy)phenyl)piperazin-1-yl)pyrimidin-5-yl)methyl)-2-nitro-6,7-dihydro-5H-imidazo[2,1-b][1,3]oxazin-6-amine] | 0.0156 µg/mL (≈ 0.0283 µM) |  | 
